# Test results: ChEMBL document CHEMBL1136993, “Efficient chemoenzymatic synthesis, cytotoxic evaluation, and SAR of epoxysterols” (J Med Chem, 2009)
# Columns and labels:
# HT-29 = experiment: Cytotoxicity against human HT-29 cells after 48 hrs by Alamar Blue assay; assay type: functional, cell-based; details: HT-29, 48 h
# LAMA-84 = experiment: Cytotoxicity against human LAMA-84 cells after 48 hrs by Alamar Blue assay; assay type: functional, cell-based; details: LAMA-84, 48 h
# BJ = experiment: Cytotoxicity against human BJ cells after 48 hrs by Alamar Blue assay; assay type: cell-based
smiles,measurement,setting,value
CC(C)CCC[C@@H](C)[C@H]1CC[C@H]2[C@@H]3[C@H](O)[C@@H]4O[C@@]45C[C@@H](O)CC[C@]5(C)[C@H]3CC[C@]12C,IC50,HT-29,33.8 µM
CC(C)CCC[C@@H](C)[C@H]1CC[C@H]2[C@@H]3[C@@H](O)[C@H]4O[C@]45C[C@@H](O)CC[C@]5(C)[C@H]3CC[C@]12C,IC50,LAMA-84,7 µM
same,IC50,HT-29,8.3 µM
same,IC50,BJ,19.5 µM
CC(C)CCC[C@@H](C)[C@H]1CC[C@H]2[C@@H]3C[C@@H]4O[C@@]45C[C@@H](O)CC[C@]5(C)[C@H]3CC[C@]12C,IC50,HT-29,> 50 µM
COc1cccc2c1C(=O)c1c(O)c3c(c(O)c1C2=O)C[C@@](O)(C(=O)CO)C[C@@H]3O[C@H]1C[C@H](N)[C@H](O)[C@H](C)O1 [DOXORUBICIN],IC50,LAMA-84,0.76 µM
same,IC50,HT-29,1.15 µM
same,IC50,BJ,2.7 µM
CC(C)CCC[C@@H](C)[C@H]1CC[C@H]2[C@@H]3C[C@H]4O[C@]45[C@@H](O)[C@@H](O)CC[C@]5(C)[C@H]3CC[C@]12C,IC50,LAMA-84,8 µM
same,IC50,HT-29,17.7 µM
same,IC50,BJ,20.4 µM
CC(=O)O[C@H]1CC[C@]2(C)[C@H]3CC[C@]4(C)[C@@H]([C@H](C)CCCC(C)C)CC[C@H]4[C@@H]3C[C@H]3O[C@]32[C@H]1O,IC50,HT-29,28.2 µM
CC(C)CCC[C@@H](C)[C@H]1CC[C@H]2[C@@H]3[C@@H](O)[C@@H]4O[C@@]45C[C@@H](O)CC[C@]5(C)[C@H]3CC[C@]12C,IC50,LAMA-84,4.1 µM
same,IC50,HT-29,13.3 µM
same,IC50,BJ,13.4 µM
CC(C)CCC[C@@H](C)[C@H]1CC[C@H]2[C@@H]3C[C@H]4O[C@]45C[C@@H](O)CC[C@]5(C)[C@H]3CC[C@]12C,IC50,HT-29,37.6 µM
CC(=O)O[C@H]1CC[C@@]2(C)C(=C[C@H](O)[C@H]3[C@@H]4CC[C@H]([C@H](C)CCCC(C)C)[C@@]4(C)CC[C@@H]32)C1,IC50,HT-29,29.4 µM
CC(C)CCC[C@@H](C)[C@H]1CC[C@H]2[C@@H]3CC=C4[C@@H](O)[C@@H](O)CC[C@]4(C)[C@H]3CC[C@]12C,IC50,HT-29,> 50 µM
CC(C)CCC[C@@H](C)[C@H]1CC[C@H]2[C@@H]3C[C@@H]4O[C@@]45[C@@H](O)[C@@H](O)CC[C@]5(C)[C@H]3CC[C@]12C,IC50,HT-29,38.2 µM
CC(C)CCC[C@@H](C)[C@H]1CC[C@H]2[C@@H]3[C@@H]4O[C@@]45C[C@@H](O)CC[C@]5(C)[C@H]3CC[C@]12C,IC50,HT-29,40.9 µM
CC(C)CCC[C@@H](C)[C@H]1CC[C@H]2[C@@H]3[C@H](O)C=C4C[C@@H](O)CC[C@]4(C)[C@H]3CC[C@]12C,IC50,HT-29,15.5 µM
CC(C)CCC[C@@H](C)[C@H]1CC[C@H]2[C@@H]3[C@@H](O)C=C4C[C@@H](O)CC[C@]4(C)[C@H]3CC[C@]12C,IC50,LAMA-84,4.8 µM
same,IC50,HT-29,6.4 µM
same,IC50,BJ,20.1 µM
CC(C)CCC[C@@H](C)[C@H]1CC[C@H]2[C@@H]3CC=C4C[C@@H](O)CC[C@]4(C)[C@H]3CC[C@]12C [CHOLESTEROL],IC50,HT-29,> 50 µM
CC(=O)O[C@H]1[C@@H](O)CC[C@]2(C)[C@H]3CC[C@]4(C)[C@@H]([C@H](C)CCCC(C)C)CC[C@H]4[C@@H]3C[C@H]3O[C@@]312,IC50,LAMA-84,8.1 µM
same,IC50,HT-29,15.9 µM
CC(C)CCC[C@@H](C)[C@H]1CC[C@H]2[C@@H]3CC[C@]45O[C@H]4[C@@H](O)CC[C@]5(C)[C@H]3CC[C@]12C,IC50,LAMA-84,11.2 µM
same,IC50,HT-29,22.6 µM
same,IC50,BJ,31.4 µM
CC(C)CCC[C@@H](C)[C@H]1CC[C@H]2[C@@H]3CC[C@@]45O[C@@H]4[C@@H](O)CC[C@]5(C)[C@H]3CC[C@]12C,IC50,HT-29,61.9 µM
CC(C)CCC[C@@H](C)[C@H]1CC[C@H]2[C@@H]3CCC4=C[C@@H](O)CC[C@]4(C)[C@H]3CC[C@]12C,IC50,HT-29,> 50 µM
